Measurements: paper PMC5218480 (PLoS ONE, 2017)

Test system: MV-4-11 cells
Test: Gene expression microarray analysis (Affymetrix PrimeView) and GSEA
Assay type: cell-based, human
Parameters: RFU PODN (11730768_x_at) / Fold change /veh PODN (11730768_x_at) / RFU LINC00158 (11744669_a_at) / Fold change /veh LINC00158 (11744669_a_at) / RFU DUSP10 (11751237_a_at) / Fold change /veh DUSP10 (11751237_a_at) / RFU ID3 (11757404_x_at) / Fold change /veh ID3 (11757404_x_at) / RFU PLEKHG5 (11737974_s_at) / Fold change /veh PLEKHG5 (11737974_s_at) / RFU LRRC4B (11730491_at) / Fold change /veh LRRC4B (11730491_at) / RFU GIMAP4 (11747438_a_at) / Fold change /veh GIMAP4 (11747438_a_at) / RFU KRT8 (11758183_x_at) / Fold change /veh KRT8 (11758183_x_at) / RFU CNN1 (11734310_a_at) / Fold change /veh CNN1 (11734310_a_at) / RFU VPS37D (11726825_at) / Fold change /veh VPS37D (11726825_at) / RFU C10orf10 (11716522_x_at) / Fold change /veh C10orf10 (11716522_x_at) / RFU KIR2DL2 /// KIR2DL4 /// KIR2DL5A /// KIR2DL5B /// KIR2DS1 /// KIR2DS2 /// KIR2DS3 /// KIR2DS4 /// KIR3DL3 /// KIR3DL3 /// KIR3DS1 (11738374_at) / Fold change /veh KIR2DL2 /// KIR2DL4 /// KIR2DL5A /// KIR2DL5B /// KIR2DS1 /// KIR2DS2 /// KIR2DS3 /// KIR2DS4 /// KIR3DL3 /// KIR3DL3 /// KIR3DS1 (11738374_at) / RFU C1QL1 (11718748_at) / Fold change /veh C1QL1 (11718748_at) / RFU TMPRSS4 (11747572_a_at) / Fold change /veh TMPRSS4 (11747572_a_at) / RFU HAMP (11756126_x_at) / Fold change /veh HAMP (11756126_x_at) / RFU RNFT2 (11725882_a_at) / Fold change /veh RNFT2 (11725882_a_at) / RFU NR4A2 (11747474_a_at) / Fold change /veh NR4A2 (11747474_a_at) / RFU ABCC12 (11746883_a_at) / Fold change /veh ABCC12 (11746883_a_at) / RFU TMEM136 (11760407_x_at) / Fold change /veh TMEM136 (11760407_x_at) / RFU CLDN22 /// WWC2 (11732394_at) / Fold change /veh CLDN22 /// WWC2 (11732394_at) / RFU HLA-DPB1 (11760878_x_at) / Fold change /veh HLA-DPB1 (11760878_x_at) / RFU SPINT1 (11716480_a_at) / Fold change /veh SPINT1 (11716480_a_at) / RFU GAP43 (11754022_s_at) / Fold change /veh GAP43 (11754022_s_at) / RFU A4GNT (11735810_at) / Fold change /veh A4GNT (11735810_at) / RFU PRB3 (11715151_x_at) / Fold change /veh PRB3 (11715151_x_at) / RFU TUBB4B (11761932_at) / Fold change /veh TUBB4B (11761932_at) / RFU CAPN14 (11732068_a_at) / Fold change /veh CAPN14 (11732068_a_at) / RFU TMCC2 (11721928_a_at) / Fold change /veh TMCC2 (11721928_a_at) / RFU IRGQ (11745062_a_at) / Fold change /veh IRGQ (11745062_a_at) / RFU FAM174B (11720279_a_at) / Fold change /veh FAM174B (11720279_a_at) / RFU TMPRSS4 (11748680_a_at) / Fold change /veh TMPRSS4 (11748680_a_at) / RFU FAM212B (11763350_a_at) / Fold change /veh FAM212B (11763350_a_at) / RFU PLEKHG5 (11743358_a_at) / Fold change /veh PLEKHG5 (11743358_a_at) / RFU ZSCAN30 (11745921_a_at) / Fold change /veh ZSCAN30 (11745921_a_at) / RFU CMKLR1 (11741424_a_at) / Fold change /veh CMKLR1 (11741424_a_at) / RFU LOC101060620 /// MAPK8IP1 (11723275_at) / Fold change /veh LOC101060620 /// MAPK8IP1 (11723275_at) / RFU SPTSSB (11747773_x_at) / Fold change /veh SPTSSB (11747773_x_at) / RFU PRSS12 (11739890_at) / Fold change /veh PRSS12 (11739890_at) / RFU BIN1 (11741810_x_at) / Fold change /veh BIN1 (11741810_x_at) / RFU WNT11 (11732464_a_at) / Fold change /veh WNT11 (11732464_a_at) / RFU C10orf10 (11716521_a_at) / Fold change /veh C10orf10 (11716521_a_at) / RFU C5orf56 (11738089_at) / Fold change /veh C5orf56 (11738089_at) / RFU CYB561 (11721691_x_at) / Fold change /veh CYB561 (11721691_x_at) / RFU ANKRD19P (11752326_a_at) / Fold change /veh ANKRD19P (11752326_a_at) / RFU OR2T12 /// OR2T33 /// OR2T8 (11738714_s_at) / Fold change /veh OR2T12 /// OR2T33 /// OR2T8 (11738714_s_at) / RFU VCAN (11748164_a_at) / Fold change /veh VCAN (11748164_a_at) / RFU JSRP1 (11732532_at) / Fold change /veh JSRP1 (11732532_at) / RFU KRTAP10-11 (11738290_x_at) / Fold change /veh KRTAP10-11 (11738290_x_at) / RFU MYO3A (11730013_a_at) / Fold change /veh MYO3A (11730013_a_at) / RFU EBF3 (11725865_a_at) / Fold change /veh EBF3 (11725865_a_at) / RFU CAMK2N1 (11719241_x_at) / Fold change /veh CAMK2N1 (11719241_x_at) / RFU C5orf56 (11738088_a_at) / Fold change /veh C5orf56 (11738088_a_at) / RFU OLFML3 (11715873_a_at) / Fold change /veh OLFML3 (11715873_a_at) / RFU LOC100653217 /// NTM (11731650_a_at) / Fold change /veh LOC100653217 /// NTM (11731650_a_at) / RFU MAPK11 (11762145_a_at) / Fold change /veh MAPK11 (11762145_a_at) / RFU FIZ1 (11724087_x_at) / Fold change /veh FIZ1 (11724087_x_at) / RFU OASL (11726364_x_at) / Fold change /veh OASL (11726364_x_at) / RFU SOX15 (11748057_x_at) / Fold change /veh SOX15 (11748057_x_at) / RFU CD79A (11719716_a_at) / Fold change /veh CD79A (11719716_a_at) / RFU HIST1H1D (11736915_at) / Fold change /veh HIST1H1D (11736915_at) / RFU CASKIN2 (11723855_a_at) / Fold change /veh CASKIN2 (11723855_a_at) / RFU LOC730098 (11760151_x_at) / Fold change /veh LOC730098 (11760151_x_at) / RFU OR4N2 (11742367_at) / Fold change /veh OR4N2 (11742367_at) / RFU PRRT2 (11749266_a_at) / Fold change /veh PRRT2 (11749266_a_at) / RFU SNX32 (11753110_a_at) / Fold change /veh SNX32 (11753110_a_at) / RFU CDHR5 (11726645_a_at) / Fold change /veh CDHR5 (11726645_a_at) / RFU RCAN1 (11760418_a_at) / Fold change /veh RCAN1 (11760418_a_at) / RFU FAM167A (11723789_a_at) / Fold change /veh FAM167A (11723789_a_at) / RFU FAM26E (11764081_at) / Fold change /veh FAM26E (11764081_at) / RFU ISYNA1 (11749810_s_at) / Fold change /veh ISYNA1 (11749810_s_at) / RFU ACY1 (11761880_at) / Fold change /veh ACY1 (11761880_at) / RFU 11764098_at / Fold change /veh 11764098_at / RFU SAMD14 (11745864_x_at) / Fold change /veh SAMD14 (11745864_x_at) / RFU NPB (11741838_a_at) / Fold change /veh NPB (11741838_a_at) / RFU TMPRSS6 (11731388_a_at) / Fold change /veh TMPRSS6 (11731388_a_at) / RFU KRTAP10-2 (11738614_at) / Fold change /veh KRTAP10-2 (11738614_at) / RFU ARHGAP8 /// PRR5-ARHGAP8 (11727945_x_at) / Fold change /veh ARHGAP8 /// PRR5-ARHGAP8 (11727945_x_at) / RFU KRTAP5-7 /// NADSYN1 (11734609_at) / Fold change /veh KRTAP5-7 /// NADSYN1 (11734609_at) / RFU RASL12 (11751679_a_at) / Fold change /veh RASL12 (11751679_a_at) / RFU CDKN2B (11736163_a_at) / Fold change /veh CDKN2B (11736163_a_at) / RFU PRF1 (11729649_at) / Fold change /veh PRF1 (11729649_at) / RFU, ZNF638 /// ZNF638-IT1 / Fold change vs veh, ZNF638 /// ZNF638-IT1 / RFU, PANK3 / Fold change vs veh, PANK3 / RFU, SH3YL1 / Fold change vs veh, SH3YL1 / RFU, ZEB2 / Fold change vs veh, ZEB2 / RFU, NRIP1 / Fold change vs veh, NRIP1 / RFU, PTTG1IP / Fold change vs veh, PTTG1IP / RFU, CAPN2 / Fold change vs veh, CAPN2 / RFU, MED14 / Fold change vs veh, MED14 / RFU, SNORA58 / Fold change vs veh, SNORA58 / RFU, C1orf63 / Fold change vs veh, C1orf63 / RFU, LRRFIP1 / Fold change vs veh, LRRFIP1 / RFU, NDUFAF7 / Fold change vs veh, NDUFAF7 / RFU, SLC12A2 / Fold change vs veh, SLC12A2 / RFU, IBTK / Fold change vs veh, IBTK / RFU, ESF1 / Fold change vs veh, ESF1 / Fold change vs veh, TMEM50B / RFU, TAOK1 / Fold change vs veh, TAOK1 / RFU, ACBD3 / Fold change vs veh, ACBD3 / RFU, TMA16 / Fold change vs veh, TMA16 / RFU, RWDD3 / Fold change vs veh, RWDD3 / RFU, BCAT1 / Fold change vs veh, BCAT1 / RFU, EDEM3 / Fold change vs veh, EDEM3 / RFU, TMEM33 / Fold change vs veh, TMEM33 / RFU, WDR75 / Fold change vs veh, WDR75 / RFU, AHCTF1 / Fold change vs veh, AHCTF1 / RFU, TFRC / Fold change vs veh, TFRC / RFU, ZDHHC17 / Fold change vs veh, ZDHHC17 / RFU, NOM1 / Fold change vs veh, NOM1 / RFU, ARL8B / Fold change vs veh, ARL8B / RFU, ZBTB11 / Fold change vs veh, ZBTB11 / RFU, TAMM41 / Fold change vs veh, TAMM41 / RFU, KIAA1704 /// LOC100996395 / Fold change vs veh, KIAA1704 /// LOC100996395 / RFU, ING1 / Fold change vs veh, ING1 / RFU, TRMT61B / Fold change vs veh, TRMT61B / RFU, FUBP3 / Fold change vs veh, FUBP3 / RFU, TP53 / Fold change vs veh, TP53 / RFU, TNKS2 / Fold change vs veh, TNKS2 / RFU, ZFP14 / Fold change vs veh, ZFP14 / RFU, ACTR2 / Fold change vs veh, ACTR2 / RFU, PPP3R1 / Fold change vs veh, PPP3R1 / RFU, PIK3R1 / Fold change vs veh, PIK3R1 / RFU, HNRNPA1 / Fold change vs veh, HNRNPA1 / RFU, RNF170 / Fold change vs veh, RNF170 / RFU, ZNF28 / Fold change vs veh, ZNF28 / RFU, RNGTT / Fold change vs veh, RNGTT / RFU, OGT / Fold change vs veh, OGT / RFU, BRD1 / Fold change vs veh, BRD1 / RFU, MARS / Fold change vs veh, MARS / RFU, ZNF655 / Fold change vs veh, ZNF655 / RFU, FAHD1 / Fold change vs veh, FAHD1 / RFU, BDP1 / Fold change vs veh, BDP1 / RFU, LRRCC1 / Fold change vs veh, LRRCC1 / RFU, ARID1A / Fold change vs veh, ARID1A / RFU, ZNF146 / Fold change vs veh, ZNF146 / RFU, ZNF330 / Fold change vs veh, ZNF330 / RFU, GPN3 / Fold change vs veh, GPN3 / RFU, C9orf123 / Fold change vs veh, C9orf123 / RFU, N4BP2L2 / Fold change vs veh, N4BP2L2 / RFU, ARFIP1 / Fold change vs veh, ARFIP1 / RFU, FAM179B / Fold change vs veh, FAM179B / RFU, BCL10 / Fold change vs veh, BCL10 / RFU, UHRF1BP1L / Fold change vs veh, UHRF1BP1L / RFU, BET1 / Fold change vs veh, BET1 / RFU, CNOT2 / Fold change vs veh, CNOT2 / RFU, ZNF268 / Fold change vs veh, ZNF268 / Fold change vs veh, ZNF507 / RFU, DGCR2 / Fold change vs veh, DGCR2 / RFU, WDSUB1 / Fold change vs veh, WDSUB1 / Fold change vs veh, HSP90B1 /// MIR3652 / RFU, ADSS / Fold change vs veh, ADSS / RFU, GK / Fold change vs veh, GK / RFU, ZNF148 / Fold change vs veh, ZNF148 / RFU, TAF9 / Fold change vs veh, TAF9 / RFU, SLC1A5 / Fold change vs veh, SLC1A5 / RFU, SLMO2 / Fold change vs veh, SLMO2 / RFU, ABCC4 / Fold change vs veh, ABCC4 / RFU, LOC101060439 /// RAP1B / Fold change vs veh, LOC101060439 /// RAP1B / RFU, RFX7 / Fold change vs veh, RFX7 / RFU, GTPBP10 / Fold change vs veh, GTPBP10 / RFU, CNEP1R1 / Fold change vs veh, CNEP1R1 / RFU, BIVM-ERCC5 /// ERCC5 / Fold change vs veh, BIVM-ERCC5 /// ERCC5 / RFU, ILF3 / Fold change vs veh, ILF3 / RFU 11762660_at / Fold change /veh 11762660_at / RFU VCAN (11757783_s_at) / Fold change /veh VCAN (11757783_s_at) / RFU DDX43 (11728927_at) / Fold change /veh DDX43 (11728927_at) / RFU KRT8 (11758188_x_at) / Fold change /veh KRT8 (11758188_x_at) / RFU NKD1 (11759106_at) / Fold change /veh NKD1 (11759106_at) / RFU SRD5A1 (11742802_a_at) / Fold change /veh SRD5A1 (11742802_a_at) / RFU TPSAB1 /// TPSB2 (11721975_s_at) / Fold change /veh TPSAB1 /// TPSB2 (11721975_s_at) / RFU GSTM3 (11746129_a_at) / Fold change /veh GSTM3 (11746129_a_at) / RFU IL23R (11737362_x_at) / Fold change /veh IL23R (11737362_x_at) / RFU TMEM51 (11727254_a_at) / Fold change /veh TMEM51 (11727254_a_at) / RFU PIWIL2 (11732686_x_at) / Fold change /veh PIWIL2 (11732686_x_at) / RFU ORM1 (11744905_x_at) / Fold change /veh ORM1 (11744905_x_at) / RFU CCDC152 (11743942_at) / Fold change /veh CCDC152 (11743942_at) / RFU ECM1 (11717891_a_at) / Fold change /veh ECM1 (11717891_a_at) / RFU IL23R (11748794_a_at) / Fold change /veh IL23R (11748794_a_at) / RFU TNFAIP8L3 (11732012_x_at) / Fold change /veh TNFAIP8L3 (11732012_x_at) / RFU MBOAT4 (11741988_at) / Fold change /veh MBOAT4 (11741988_at) / RFU 11764193_at / Fold change /veh 11764193_at / RFU TMEM53 (11763286_at) / Fold change /veh TMEM53 (11763286_at) / RFU MAGEB2 (11727129_at) / Fold change /veh MAGEB2 (11727129_at) / RFU TMEM200A (11744735_a_at) / Fold change /veh TMEM200A (11744735_a_at) / RFU CCDC152 (11751479_a_at) / Fold change /veh CCDC152 (11751479_a_at) / RFU FAM211A (11726209_a_at) / Fold change /veh FAM211A (11726209_a_at) / RFU RGS16 (11746705_a_at) / Fold change /veh RGS16 (11746705_a_at) / RFU VCAN (11755009_s_at) / Fold change /veh VCAN (11755009_s_at) / RFU RHOB (11743442_s_at) / Fold change /veh RHOB (11743442_s_at) / RFU RGS16 (11720943_a_at) / Fold change /veh RGS16 (11720943_a_at) / RFU RGS16 (11720944_at) / Fold change /veh RGS16 (11720944_at) / RFU, VPS4B / Fold change vs veh, VPS4B / RFU, CREB1 / Fold change vs veh, CREB1 / RFU, DNAJC13 / Fold change vs veh, DNAJC13 / RFU, GNAQ / Fold change vs veh, GNAQ / RFU, CDK5R1 / Fold change vs veh, CDK5R1 / RFU, ZRANB3 / Fold change vs veh, ZRANB3 / RFU, CUL4A / Fold change vs veh, CUL4A / RFU, CCNY / Fold change vs veh, CCNY / RFU, UFL1 / Fold change vs veh, UFL1 / RFU, COG3 / Fold change vs veh, COG3 / RFU, DIAPH2 / Fold change vs veh, DIAPH2 / RFU, SKA2 / Fold change vs veh, SKA2 / RFU, AFF3 / Fold change vs veh, AFF3 / RFU, LMF1 / Fold change vs veh, LMF1 / RFU, IPO11 / Fold change vs veh, IPO11 / RFU, DFFB / Fold change vs veh, DFFB / RFU, FOXP1 / Fold change vs veh, FOXP1 / RFU, CARD8 / Fold change vs veh, CARD8 / RFU, STRN3 / Fold change vs veh, STRN3 / RFU, ADK / Fold change vs veh, ADK / RFU, RASSF2 / Fold change vs veh, RASSF2 / RFU, WIPF1 / Fold change vs veh, WIPF1 / RFU, LARP1B / Fold change vs veh, LARP1B / RFU, RASA1 / Fold change vs veh, RASA1 / RFU, RB1 / Fold change vs veh, RB1 / RFU, PPFIA1 / Fold change vs veh, PPFIA1 / RFU, MAT2A / Fold change vs veh, MAT2A / RFU, CCT5 / Fold change vs veh, CCT5 / RFU, WDR92 / Fold change vs veh, WDR92 / RFU, CUX1 / Fold change vs veh, CUX1 / RFU, TTC7A / Fold change vs veh, TTC7A / RFU, TMEM135 / Fold change vs veh, TMEM135 / RFU, DEPTOR / Fold change vs veh, DEPTOR / RFU, CPM / Fold change vs veh, CPM / RFU, DNAJB6 / Fold change vs veh, DNAJB6 / RFU, CACNA2D3 / Fold change vs veh, CACNA2D3 / RFU, DTX4 / Fold change vs veh, DTX4 / RFU, TFCP2 / Fold change vs veh, TFCP2 / RFU, GMCL1 /// GMCL1P1 / Fold change vs veh, GMCL1 /// GMCL1P1 / RFU, AEBP2 / Fold change vs veh, AEBP2 / RFU, SNHG1 /// SNORD22 /// SNORD25 /// SNORD26 /// SNORD27 /// SNORD28 /// SNORD29 /// SNORD31 / Fold change vs veh, SNHG1 /// SNORD22 /// SNORD25 /// SNORD26 /// SNORD27 /// SNORD28 /// SNORD29 /// SNORD31 / Fold change (Aza/veh), C12orf56 (ProbeSet 11735607_a_at) / Fold change (ACY-1035/veh), C12orf56 (ProbeSet 11735607_a_at) / Fold change (Aza/veh), FGFR1OP (ProbeSet 11751329_s_at) / Fold change (ACY-1035/veh), FGFR1OP (ProbeSet 11751329_s_at) / Fold change (Aza/veh), VPS36 (ProbeSet 11739960_a_at) / Fold change (ACY-1035/veh), VPS36 (ProbeSet 11739960_a_at) / RFU SYPL1 (11715823_x_at) / Fold change /veh SYPL1 (11715823_x_at) / RFU IGFBP7 (11715501_s_at) / Fold change /veh IGFBP7 (11715501_s_at) / RFU REEP3 (11722064_at) / Fold change /veh REEP3 (11722064_at) / RFU IGLL1 (11728026_x_at) / Fold change /veh IGLL1 (11728026_x_at): dose or concentration left out as unconfirmed
Details: ProbeSet 11743882_a_at; LIST D

In the case of `Nc1ncn([C@@H]2O[C@H](CO)[C@@H](O)[C@H]2O)c(=O)n1` [azacitidine], the “Fold change vs veh, STRN3” value was 0.74.
